{"source": "patent US20190055231A1", "about": "“BACE1 INHIBITORS” (Hoffmann-La Roche Inc., priority 2016, published 2019)", "key": {"Human P-gp": {"target": "Human P-gp (Homo sapiens, UniProt P08183)", "sequence (P08183 whole entry)": "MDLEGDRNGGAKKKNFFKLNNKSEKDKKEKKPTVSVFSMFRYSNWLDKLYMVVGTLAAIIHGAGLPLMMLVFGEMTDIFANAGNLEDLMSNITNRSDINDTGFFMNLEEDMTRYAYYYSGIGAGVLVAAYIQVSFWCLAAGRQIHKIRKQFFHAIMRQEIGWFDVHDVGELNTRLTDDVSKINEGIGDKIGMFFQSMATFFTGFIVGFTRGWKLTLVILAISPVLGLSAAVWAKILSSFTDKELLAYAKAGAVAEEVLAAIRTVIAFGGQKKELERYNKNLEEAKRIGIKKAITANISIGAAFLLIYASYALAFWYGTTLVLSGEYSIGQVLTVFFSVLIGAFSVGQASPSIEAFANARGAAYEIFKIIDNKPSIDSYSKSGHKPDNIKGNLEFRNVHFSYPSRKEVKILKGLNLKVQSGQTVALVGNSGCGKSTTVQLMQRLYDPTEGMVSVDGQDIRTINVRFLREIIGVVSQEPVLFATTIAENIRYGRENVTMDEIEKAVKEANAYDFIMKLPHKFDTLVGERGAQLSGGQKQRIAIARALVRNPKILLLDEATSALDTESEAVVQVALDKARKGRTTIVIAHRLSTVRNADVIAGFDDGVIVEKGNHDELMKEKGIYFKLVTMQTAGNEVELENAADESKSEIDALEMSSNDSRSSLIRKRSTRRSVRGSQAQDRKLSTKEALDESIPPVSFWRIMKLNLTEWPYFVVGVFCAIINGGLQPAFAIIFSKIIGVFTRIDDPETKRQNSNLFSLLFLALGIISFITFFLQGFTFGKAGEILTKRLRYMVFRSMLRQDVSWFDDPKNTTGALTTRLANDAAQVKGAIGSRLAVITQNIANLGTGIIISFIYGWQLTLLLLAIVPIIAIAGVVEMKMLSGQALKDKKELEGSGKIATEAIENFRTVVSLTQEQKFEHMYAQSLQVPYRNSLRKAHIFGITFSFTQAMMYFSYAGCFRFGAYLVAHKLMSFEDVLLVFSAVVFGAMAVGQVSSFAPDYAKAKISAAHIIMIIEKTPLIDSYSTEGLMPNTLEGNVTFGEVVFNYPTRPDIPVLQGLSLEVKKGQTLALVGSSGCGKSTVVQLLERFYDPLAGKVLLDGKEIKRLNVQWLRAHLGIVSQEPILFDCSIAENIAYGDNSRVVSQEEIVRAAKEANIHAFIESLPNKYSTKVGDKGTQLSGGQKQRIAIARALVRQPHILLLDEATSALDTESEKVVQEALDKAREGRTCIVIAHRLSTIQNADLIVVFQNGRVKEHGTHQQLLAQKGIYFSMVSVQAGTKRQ", "assay": "P-gp transport assay (human)", "type": "in vitro ADME", "details": "efflux ratio", "from_the_text": "P-Gp Transport Assay (Human and Mouse) (P-Gp Assay)\nIn the assay of the P-gp efflux ratio ER as described hereinabove, a compound with ER<2.5 is regarded most suitable. In addition, compounds with low hERG channel binding are suitable as well."}, "Plasma Aβ40": {"system": "Plasma Aβ40", "assay": "Cynomolgus monkey plasma Aβ40 determination", "type": "in vivo, Cynomolgus monkey (Macacaca fascicularis)", "from_the_text": "Cynomolgus Monkey (Macacaca fascicularis) Single Dose PK Study and Plasma Aβ40 Determination\nBlood and plasma collection will always be performed in the treatment cage. The animal care keeper grabs either one arm or one leg through the bars. The hairs are shaved for better visibility of the vein. The blood vessel is squeezed, the vein is punctured by using a butterfly and blood is taken. Once enough blood has been withdrawn a cotton swab is placed over the injection site and the needle is gently removed. Bleeding is stopped by pressing a cotton swab on the wound. Plasma samples were taken between 5 min and 48 h.\nBlood is transferred into a labeled EDTA-K2 Eppendorf tube and the sample is mixed by inverting the tubes several times. Blood is stored at −20° C.\nAβ determination in cynomolgous plasma samples was done after solid phase extraction (Lanz, T. et al., J. of Neuroscience Methods, 2006, 157:71-81). Frozen plasma samples were thawed in a 25° C. waterbath. […] Once samples were dried, they were stored at −80° C. or measured immediately. […]\nAβ concentration was determined following a modified protocol from Perkin-Elmer with a commercially available antibody against the N-terminal part of cynomolgus Aβ (6E10, Signet IG-39340) and an in-house C-terminal specific anti-Aβ40 antibody (BAP-24, Brockhaus M. et al., J. Neuroreport, 1998, 9:1481-1486). […]"}}}
{"smiles": "Cc1cc(C#N)cnc1C(=O)Nc1ccc(F)c([C@@]2(C)N=C(N)O[C@H](C(F)(F)F)[C@@H]2F)n1", "note": "[Example 1, N-(6-((4R,5R,6S)-2-amino-5-fluoro-4-methyl-6-(trifluoromethyl)-5,6-dihydro-4H-1,3-oxazin-4-yl)-5-fluoropyridin-2-yl)-5-cyano-3-methylpicolinamide]", "values": [{"measurement": "Human P-gp ER", "setting": "Human P-gp", "value": 1.7}, {"measurement": "Plasma Aβ-lowering 0.2 mg/kg at 24 h", "setting": "Plasma Aβ40; 24 h post dose", "value": 57, "unit": "%"}, {"measurement": "Plasma Aβ-lowering 0.2 mg/kg at 48 h", "setting": "Plasma Aβ40; 48 h post dose", "value": 50, "unit": "%"}]}
